Laboratory results from publication PMC5748754, “Elucidating the Skin Delivery of Aglycone and Glycoside Flavonoids: How the Structures Affect Cutaneous Absorption” (Nutrients, 2017).
Values after ≈ are worked out from the molar mass of the structure shown. Values joined by “and” are separate entries in the source; they are usually repeats but may differ in a detail not shown here. Equal entries are not always repeated. “Also recorded” adds a separate entry of the source.

Assays:
[1] = tested on: fMLF-activated human neutrophils (elastase release); test: Elastase release inhibition in fMLF-activated human neutrophils; assay type: cell-based; conditions: flavonoids at 3 µM, fMLF/cytochalasin B-activated human neutrophils; for inhibition at 3 µM: Neutrophil
Source text: (§1) The protocol was approved by the Institutional Review Board at Chang Gung Memorial Hospital, and written informed consent was obtained from all volunteers (201600500B0C101). Whole blood was withdrawn from healthy volunteers between 20 and 30 years of age. Human neutrophils were isolated using a typical method of dextran sedimentation prior to centrifugation in a Ficoll-Hypaque gradient and hypotonic lysis of erythrocytes. The granulocyte layer was harvested and suspended in calcium-free HBSS at pH 7.4, which was maintained at 4 °C until use.
(§2) The reduction of ferricytochrome c was utilized for measuring the superoxide anion (O2^•–) release from the neutrophils. The human neutrophils (6 × 10^5 cells/mL) were incubated with 0.5 mg/mL ferricytochrome c and 1 mM CaCl2 at 37 °C, and were then treated with flavonoids (3 µM) in DMSO for 10 min. Neutrophils were stimulated by adding 0.1 µM fMLF with cytochalasin B (1 µg/mL). The reduction of ferricytochrome c was monitored by the absorbance at 550 nm using a U3010 ultraviolet/visible spectrophotometer (Hitachi, Tokyo, Japan). The human neutrophils were equilibrated with an elastase substrate (MeO-Suc-Ala-Ala-Pro-Val-p-nitroanilide, 100 µM) at 37 °C for 2 min. Flavonoids at a concentration of 3 µM were added into the neutrophil suspension for 10 min. The cells were activated by fMLF and cytochalasin B for a further 10 min. Elastase release was detected by measuring the change of absorbance at 405 nm.

[2] = tested on: fMLF-activated human neutrophils (O2•– release); test: Superoxide anion (O2•–) inhibition in fMLF-activated human neutrophils; assay type: cell-based; conditions: flavonoids at 3 µM, fMLF/cytochalasin B-activated human neutrophils; for inhibition at 3 µM: Homo sapiens, Neutrophil
Source text: as §1, §2

[3] = In vitro Franz cell skin absorption, nude mouse skin; assay type: in vitro ADME; conditions: for selectivity ratio at 24 h, 6 mM / skin deposition: nude mouse skin; for selectivity ratio at 24 h, 6 mM: read-out: S value (dermal/transdermal selectivity index, skin deposition/flux); for skin deposition: equivalent dose 6 mM, 24 h; for S value (CSD/PC) / S value (skin deposition/flux) / flux: the sentence does not separate nude mouse and pig skin; for selectivity ratio at 24 h, 6 mM / S value (skin deposition/flux) / flux: dose 6 mM
Description: (§3) The cutaneous absorption of flavonoids was assessed using a Franz diffusion cell system. The excised animal skin or cellulose membrane was mounted between the donor and receptor compartments with the SC facing up toward the donor. The receptor was filled with 30% ethanol/pH 7.4 buffer and placed on a magnetic stirring plate. The effective permeation area of the cell was 0.785 cm^2. The stirring rate and temperature of the receptor were 600 rpm and 37 °C, respectively. Saturated solution or a 6 mM flavonoid suspension was prepared in 20% PEG400/pH 7.4 buffer to be loaded into the donor compartment. A 300-µL aliquot in the receptor was collected at determined durations, followed by an immediate replacement with fresh receptor medium. The amount of flavonoid in the receptor was determined by HPLC. The skin was removed from the cell after a 24-h application. After being washed with water, the skin sample was weighed and positioned in a vial with 1 mL methanol. MagNA Lyser (Roche) was used to homogenize the skin. The homogenate was centrifuged at 10,000× g for 10 min. The supernatant was analyzed by HPLC to quantify the flavonoid deposition in the skin reservoir.
In the cutaneous absorption experiment, flavonoid deposition in the skin was estimated as the molar amount per mg of skin (nM/mg). In the case of the skin deposition from the saturated solution, the calibrated skin deposition (CSD) was measured as flavonoid deposition divided by the applied dose (saturated solubility). The flux (nM/cm^2/h) was estimated by the slope of the penetrated amount–time curve. The permeability coefficient (PC) was calculated from the flux divided by the saturated solubility of the flavonoids. The dermal/transdermal selectivity index (S value) was calculated using an equation of skin deposition/flux (for equivalent dose application) or CSD/PC (for saturated dose application).

[4] = In vitro Franz cell skin absorption, pig skin; assay type: in vitro ADME; conditions: read-out: S value (dermal/transdermal selectivity index, skin deposition/flux)
Description: as §3, with “After being washed with water, the skin sample was weighed and positioned in a vial with 1 mL methanol. MagNA Lyser (Roche) was used to homogenize the skin. The homogenate was centrifuged at 10,000× g for 10 min.” left out
In the cutaneous absorption experiment, flavonoid deposition in the skin was estimated as the molar amount per mg of skin (nM/mg). In the case of the skin deposition from the saturated solution, the calibrated skin deposition (CSD) was measured as flavonoid deposition divided by the applied dose (saturated solubility). […] The permeability coefficient (PC) was calculated from the flux divided by the saturated solubility of the flavonoids. […]

[5] = Capacity factor (log K') by HPLC; assay type: physicochemical; conditions: HPLC C18, methanol/pH 2 phosphate buffer 1:1
Description: The HPLC setup for the calculation of log K’ was an HPLC system (7-series, Hitachi, Tokyo, Japan) with a LiChrospher® C18 column (200 × 4.6 mm, Merck, Darmstadt, Germany). The mobile phase consisted of a mixture of methanol and pH 2 phosphate buffer solution (1:1). The flow rate and wavelength for determination were 1 mL/min (L-7110 pump) and 256 nm (L-7455 diode array detector), respectively. The retention times of flavonoids were detected, and the log K’ was computed as log [(tr − t0)/t0], where tr and t0 were the retention time of the flavonoid and the nonretained solvent peak, respectively.

[6] = Saturated solubility in 20% PEG400/pH 7.4 buffer; assay type: physicochemical; conditions: for solubility at 2 h: aqueous with cosolvent or surfactant or cyclodextrin, thermodynamic from solid, 20% PEG400/pH 7.4 buffer, 37 °C
Description: The suspension was then centrifuged at 10,000× g for 10 min. The supernatant was filtered across the polyvinylidene fluoride membrane with a pore size of 0.45 µm. The resulting supernatant was analyzed by HPLC to record the solubility (mM).

[7] = In vivo cutaneous tolerance (TEWL, histology) on nude mouse back; conditions: 6 mM topically daily for 7 days; for histology: SC layers: H&E, versus vehicle control; for ΔTEWL (treated skin minus aqueous vehicle control): nude mouse back
Description: The 20% PEG400/pH 7.4 buffer loaded with flavonoids at 6 mM was topically applied daily (0.6 mL) on the nude mouse back for 7 days. The flavonoid-containing vehicle was replaced with a new one each day. After removal of the vehicle, the treated skin region was evaluated by Tewameter TM300 (Courage and Khazaka, Köln, Germany) to determine the transepidermal water loss (TEWL). Stained by hematoxylin and eosin (H&E), the treated skin was excised for histological examination after a 7-day flavonoid application.

[8] = Franz cell skin deposition in SC-disrupted nude mouse skin; assay type: in vitro ADME; conditions: 6 mM; for Skin deposition, fold versus intact skin (SC-stripping) / skin deposition after the SC's removal: SC-stripped nude mouse skin
Description: The full-thickness dorsal skin of the nude mouse was excised after sacrifice. The SC-stripped skin was obtained by stripping the skin surface 20 times with adhesive tape (Scotch®, 3M, Maplewood, MN, USA). The delipidized skin was achieved by incubating the skin surface onto a chloroform/methanol solution (2:1) for 2 h. To prepare the desebumed skin, the SC side of the skin was washed with cold hexane (4 °C) five times, based on the procedure of the previous study. The skin’s surface was then treated with a 40% ethanol/water solution for 2 h, a process that successfully denatured the skin’s proteins.
as §3

[9] = Partition coefficient (log P), n-octanol/water; assay type: physicochemical; conditions: 37 °C
Description: Flavonoids in methanol (0.5 mg/mL) were pipetted into a tube at a volume of 1 mL. Methanol was then evaporated under vacuum. In the amount of 1 mL of each, n-Octanol and water were incorporated into the tube. After being shaken for 24 h at 37 °C, the tube was centrifugated at 10,000× g for 10 min. The flavonoid content in both phases was analyzed by HPLC. The log P was calculated as log (flavonoid content in n-octanol/flavonoid content in water).

[10] = saturated solubility dose, skin type not separated

## Naringin
[1]
  Elastase Inhibition: 13.89 ± 9.67%
[2]
  O2^•– Inhibition: 21.51 ± 2.53%

## Quercetin
[1]; 3 µM
  Elastase Inhibition: 29% and 28.67 ± 8.51%
[2]
  O2^•– Inhibition: 26.44 ± 8.07%

## Kaempferol
[1]
  Elastase Inhibition: 18.11 ± 9.01%
[2]
  O2^•– Inhibition: 26.49 ± 8.41%

## C[C@@H]1O[C@@H](OC[C@H]2O[C@@H](Oc3c(-c4ccc(O)c(O)c4)oc4cc(O)cc(O)c4c3=O)[C@H](O)[C@@H](O)[C@@H]2O)[C@H](O)[C@H](O)[C@H]1O [Rutin]
[3]
  selectivity ratio at 24 h, 6 mM: 1.3
[4]
  selectivity ratio at 24 h, 6 mM: 0.4
[1]
  inhibition at 3 µM: 13.2 ± 3.39%
[2]
  inhibition at 3 µM: 33.9 ± 8.67%
[5]
  log K’: 0.24
[6]
  solubility at 2 h: 1840 ± 40 µM (≈ 1120 µg/mL)

## O=c1c(O)c(-c2ccc(O)cc2)oc2cc(O)cc(O)c12 [Kaempferol]
[3]
  selectivity ratio at 24 h, 6 mM: 2.7
  skin deposition: 0.11 nM/mg
[3]; [10]
  permeability coefficient (PC): neglected
[3]; saturated solubility dose
  S value (CSD/PC): infinity
[4]
  selectivity ratio at 24 h, 6 mM: 1.5
[7]
  histology: SC layers: SC layers could be recovered
  ΔTEWL (treated skin minus aqueous vehicle control): reduced TEWL as compared to the vehicle control; also recorded: alleviated ΔTEWL
[6]
  solubility at 2 h: 190 ± 4.7 µM (≈ 54.4 µg/mL)

## O=C1C[C@@H](c2ccc(O)cc2)Oc2cc(O)cc(O)c21 [Naringenin]
[3]
  skin deposition: 0.37 nM/mg
[7]
  histology: SC layers: SC layers could be recovered
  ΔTEWL (treated skin minus aqueous vehicle control): reduced TEWL as compared to the vehicle control
[7]; listed as naringenin
  ΔTEWL (treated skin minus aqueous vehicle control): alleviated ΔTEWL
[6]; PEG400/pH 7.4 buffer solution
  fold more soluble than baicalein: 470 fold
[6]
  solubility at 2 h: 3620 ± 280 µM (≈ 986 µg/mL)

## O=c1c(O)c(-c2cc(O)c(O)c(O)c2)oc2cc(O)cc(O)c12 [Myricetin]
[3]
  S value (skin deposition/flux): ∞
  flux: near zero
[3]; [10]
  permeability coefficient (PC): neglected
[3]; saturated solubility dose
  S value (CSD/PC): infinity
[1]
  inhibition at 3 µM: 16.8 ± 4.76%
[8]
  Skin deposition, fold versus intact skin (SC-stripping): > 30 x
  skin deposition after the SC's removal: 0.4 nM/mg
[2]
  inhibition at 3 µM: 42.1 ± 6.22%
[5]
  log K’: 0.34
[6]
  solubility at 2 h: 530 ± 10 µM (≈ 169 µg/mL)
[9]
  logP at 24 h: 3.18 ± 0.07

## Naringenin
[1]
  Elastase Inhibition: 17.97 ± 6.62%
[2]; 3 µM
  O2^•– Inhibition: 19.72 ± 8.23%
[2]; listed as naringenin, 3 µM
  O2^•– Inhibition: 20%

## C[C@@H]1O[C@@H](O[C@H]2[C@H](Oc3cc(O)c4c(c3)O[C@H](c3ccc(O)cc3)CC4=O)O[C@H](CO)[C@@H](O)[C@@H]2O)[C@H](O)[C@H](O)[C@H]1O [Naringin]
[7]
  histology: SC layers: SC layers could be recovered
[6]
  solubility at 2 h: > 20000 µM

## O=c1c(O)c(-c2ccc(O)c(O)c2)oc2cc(O)cc(O)c12 [Quercetin]
[3]
  S value (skin deposition/flux): ∞
  flux: near zero
[3]; [10]
  permeability coefficient (PC): neglected
[3]; saturated solubility dose
  S value (CSD/PC): infinity
[8]
  Skin deposition, fold versus intact skin (SC-stripping): > 30 x
  skin deposition after the SC's removal: 1.2 nM/mg
[8]; deproteinized nude mouse skin
  Skin deposition, fold versus intact skin (Protein removal): failed to change
[6]
  solubility at 2 h: 380 ± 2.5 µM (≈ 115 µg/mL)

## O=c1cc(-c2ccccc2)oc2cc(O)c(O)c(O)c12 [Baicalein]
[3]; [10]
  calibrated skin deposition (CSD): below the quantification limit
[3]; saturated solubility dose
  S value (CSD/PC): 0
[1]
  inhibition at 3 µM: 12.2 ± 2.15%
[8]
  skin deposition after the SC's removal: 0.2 nM/mg
[2]
  inhibition at 3 µM: 77%
[2]; 3 µM
  O2^•– Inhibition: 77.48 ± 5.27%
[5]
  log K’: 0.73
[6]
  solubility at 2 h: 7.7 ± 1.9 µM (≈ 2.08 µg/mL)
[9]
  logP at 24 h: 3.59 ± 0.08

## O=C(O)[C@H]1O[C@@H](Oc2cc3oc(-c4ccccc4)cc(=O)c3c(O)c2O)[C@H](O)[C@@H](O)[C@@H]1O [Baicalin]
[1]
  inhibition at 3 µM: 0%
  Elastase Inhibition: did not change
[2]
  inhibition at 3 µM: 77%
[2]; 3 µM
  O2^•– Inhibition: 75.73 ± 6.21%
[2]; listed as baicalin, 3 µM
  O2^•– Inhibition: 76%
[5]
  log K’: 0.42
[6]
  solubility at 2 h: 5320 ± 150 µM (≈ 2370 µg/mL)
[9]
  logP at 24 h: 0.89 ± 0.02
